Data taken from patent publication EP0600092A1, “THIAZOLE DERIVATIVE” (OTSUKA PHARMACEUTICAL CO., LTD., priority 1992, dated 1993).

Test system: human neutrophilic leukocyctes
Assay: Activity for inhibiting the generation of O2- in human neutrophilic leukocytes (FMLP-stimulated, ferricytochrome C method)
Assay type: cell-based
Settings: Leukocyte, O₂⁻ generation stimulated with 3×10⁻⁷ M FMLP at 37°C, cytochalasin B 5 µg/ml, pre-incubated with test compound 20 minutes, 4 minutes reduction, absorbance 550 nm, read-out: IC₅₀
Experimental: Activity for inhibiting the generation of O₂⁻ in human neutrophilic leukocyctes
Human neutrophilic leukocyctes were prepared in accordance with the method of M. Markert et al. [Methods in Enzymology, vol. 105; pp. 358-365 (1984)]. That is, a whole blood obtained from a healthy adult and treated by anticoagulation method was subjected to a dextranhypotonic treatment to obtain leukocyte cells. The leukocycte cells were then subjected to a density gradient ultracentrifugation by Ficoll-Paque to obtain a neutrophilic leukocyte fraction.
O₂⁻ generation was examined by the ferricytochrome C method in accordance with the mehtod of B.N. Cronstein et al. [Journal of Experimental Medicine, vol. 158, pp. 1160-1177 (1983)]. That is, […] of neutrophilic leukocytes were stimulated with 3×10⁻⁷ M of N-formyl-L-methionyl-L-leucyl-L-phenylalanine (FMLP) at 37°C in the presence of 1.3 mg/ml of ferricytochrome C and 5 µg/ml of cytochalasin B in a Hepes-buffered Hank's solution (pH 7.4); the amount of ferricytochrome C formed by 4 minutes of reduction was determined by measuring an absorbance at a wavelength of 550 nm using a spectrophotometer; an absorbance in the presence of 25.1 µg/ml of superoxide dismutase (SOD) was also measured; the difference of the two absorbances was taken as the amount of O₂⁻ generated. Each test compound was dissolved in dimethyl sulfoxide (DMSO); the solution was added to neutrophilic leukocytes before the addition of FMLP; then, the neutrophilic leukocytes were pre-incubated at 37°C for 20 minutes. By using the amount of O₂⁻ generated when the test compound solution was added and the amount of O₂⁻ generated when only the solvent (DMSO) was added, a ratio of inhibition (%) was calculated, and the activity for inhibiting O₂⁻ generation was expressed as 50% inhibitory concentration (IC₅₀).

**Q.** `COc1ccc(-c2nc(-c3ccc(O)c(C(=O)NO)c3)cs2)cc1OC` [Test compound 13, Disodium [2-(3,4-dimethoxyphenyl)-4-thiazolyl]salicylhydroxamate] was tested. Which IC50 did it give?
**A.** 600 nM

**Q.** For `CCOc1ccc(-c2nc(-c3cccc(C(O)CN4CCN(C)CC4)n3)cs2)cc1OCC` (stereo not shown) [Example 28], which IC50 is on record?
**A.** 450 nM

**Q.** How did the IC50 turn out when `CCOc1ccc(-c2nc(-c3cnccn3)cs2)cc1OCC` [Example 23] was run?
**A.** 72 nM

**Q.** With `CCOc1ccc(-c2nc(-c3cc(N4CCN(C)CC4)ccn3)cs2)cc1OCC` [Example 27] as the molecule, how does the IC50 read?
**A.** 750 nM

**Q.** For `CCOc1ccc(-c2nc(-c3ccc(C(=N)NO)cc3)cs2)cc1OCC` [Example 18], which IC50 is on record?
**A.** 13 nM

**Q.** With `CCOc1ccc(-c2nc(-c3cccc(C(=N)NO)n3)cs2)cc1OCC` [Example 29] as the molecule, how does the IC50 read?
**A.** 230 nM

**Q.** `CCOc1ccc(-c2nc(-c3ccc(C(N)=S)cc3)cs2)cc1OCC` [Example 17] was tested. Which IC50 did it give?
**A.** 66 nM

**Q.** With `CCOc1ccc(-c2nc(-c3ccc(C(=N)SC)cc3)cs2)cc1OCC` [Example 19] as the molecule, how does the IC50 read?
**A.** 200 nM

**Q.** `CCOc1ccc(-c2nc(-c3ccc(NC(N)=S)cc3)cs2)cc1OCC` [Example 20] was tested. Which IC50 did it give?
**A.** 30 nM

**Q.** How did the IC50 turn out when `CCOc1ccc(-c2nc(-c3ccc(O)c(-c4nnn[nH]4)c3)cs2)cc1OCC` [Test compound 5, 2-(3,4-Diethoxyphenyl)-4-[3-(1,2,3,4-tetrazol-5-yl)-4-hydroxyphenyl]thiazole] was run?
**A.** 240 nM

**Q.** With `COc1ccc(-c2nc(-c3cccc(NC(=N)SC)c3)cs2)cc1OC` [Test compound 16, 1-{3-[2-(3,4-Dimethoxyphenyl)-4-thiazolyl]phenyl}-2-methylisothiourea hydroiodide] as the molecule, how does the IC50 read?
**A.** 350 nM

**Q.** `CCOc1ccc(-c2nc(-c3cccc(C(=N)SC)n3)cs2)cc1OCC` [Example 25] was tested. Which IC50 did it give?
**A.** 330 nM

**Q.** `CCOc1ccc(-c2nc(-c3cccc(C(N)=S)n3)cs2)cc1OCC` [Example 24] was tested. Which IC50 did it give?
**A.** 55 nM
